Read-outs that look alike come from different tables or passages of the source.
Columns and labels:
polyamine transporter [1] = test: Spermidine uptake ([3H]spermidine) in CHO-K1 cells; format: cell-based, Chinese hamster; settings: MESC thioether derivatives, FIG. 5
polyamine transporter [2] = settings: ZR-75-1 cells; compound as its own substrate; read-out: Km, putrescine transport; cited from earlier work
ZR-75-1 cells [3] = test: Reversal of DFMO-induced growth inhibition by exogenous spermidine; format: cell-based, human; settings: 11 days
Method: Effect of Inhibitors on Cell Proliferation--For growth studies, ZR-75-1 cells were cultured in MEZR medium or in phenol red-free RPMI 1640 supplemented with 2 mM L-glutamine, 1 mM sodium pyruvate, 15 mM Hepes, antibiotics, 1 nM 17β-estradiol, 0.5 μg of bovine insulin per ml and 5% (v/v) charcoal-treated fetal bovine serum (SD medium), as indicated in the text. When polyamines or polyamine analogs were added to serum-containing media, 1 mM aminoguanidine was added to inhibit bovine serum amine oxidase (BSAO) activity (Morgan, D. M. L. 1989. in The Physiology of Polyamines (Bachrach, U., and Helmer, Y. M. eds) Vol. I, pp. 203-229, CRC Press, Boca Raton). The effect of the transport inhibitors on cell growth was measured by incubating ZR-75-1 cells for 11 days in medium supplemental with antagonist, polyamines and/or 1 mM DFMO as indicated, followed by colorimetric determination of DNA content with 3,5-diaminobenzaic acid (Simard, J., Dauvois, S., Haagensen, D. E., Levesque, C., Merand, Y. and Labrie, F. 1990. Endocrinology 126: 3223-3231). Medium was changed every other day in these experiments because of the slow reaction of the compound with an unknown component present in the IMEM and RPMI 1640 medium formulation.

polyamine transporter [4] = settings: ZR-75-1 cells; compound as its own substrate; read-out: Km, spermidine transport; cited from earlier work
ZR-75-1 cells [5] = settings: background; cited from earlier work
ZR-75-1 cells [6] = test: Effect of inhibitors on cell proliferation (11 days, DNA content); format: cell-based, human; settings: 1 mM, 11 days
Method: Effect of Inhibitors on Cell Proliferation--For growth studies, ZR-75-1 cells were cultured in MEZR medium or in phenol red-free RPMI 1640 supplemented with 2 mM L-glutamine, 1 mM sodium pyruvate, 15 mM Hepes, antibiotics, 1 nM 17β-estradiol, 0.5 μg of bovine insulin per ml and 5% (v/v) charcoal-treated fetal bovine serum (SD medium), as indicated in the text. […] M. L. 1989. in The Physiology of Polyamines (Bachrach, U., and Helmer, Y. M. eds) Vol. I, pp. 203-229, CRC Press, Boca Raton). […] Endocrinology 126: 3223-3231). Medium was changed every other day in these experiments because of the slow reaction of the compound with an unknown component present in the IMEM and RPMI 1640 medium formulation.

## NCCCNCCCC(NCCCN)C(=O)NCCSCC(=O)NCCN1C(=O)c2cc(S(=O)(=O)O)cc3c(N)c(S(=O)(=O)O)cc(c23)C1=O (centres unmarked) [MESC-LY]
Polyamine transporter [1]
  Ki toward spermidine uptake compared with MESC: did not signicantly (P>0.10) increase the Ki

## NCCCNCCCC(NCCCN)C(=O)NCCSCC(N)=O (centres unmarked) [MESC-acetamide]
Polyamine transporter [1]
  Ki toward spermidine uptake compared with MESC: did not signicantly (P>0.10) increase the Ki

## NCCCCN [Putrescine, 1,4-butane-diamine]
Polyamine transporter [2]
  Km: 3.7 ± 0.4 µM

## NCCCCNCCCN [Spermidine, N-[3-aminopropyl]-1,4-diaminobutane]
ZR-75-1 cells [3]
  Concentration completely reversing growth inhibition by 1 mM DFMO: 0.3 µM
ZR-75-1 cells [3]; concentrations superior to 0.3 μM, FIG. 8
  Inhibition of cell proliferation: up to 20%
Polyamine transporter [4]
  Km: 490 ± 150 nM
ZR-75-1 cells [5]
  Concentration completely reversing DFMO-induced growth inhibition: 300 nM

## N=C(N)NN [aminoguanidine, reference compound]
ZR-75-1 cells [6]
  Effect on cell growth, compound alone: slight inhibitory effect

From patent US6083496A, “Polyamine transport inhibitors” (priority 1996, dated 2000)
